Experimental data reported in ChEMBL document CHEMBL1136202, “Imidazo[1,2-a]pyridines: a potent and selective class of cyclin-dependent kinase inhibitors identified through structure-based hybridisation” (Bioorg Med Chem Lett, 2003).

Tests used:
[1] = molecular target: Cyclin-dependent kinase 2 (Homo sapiens, UniProt P24941); test: Inhibition of Cyclin-dependent kinase 2
[2] = molecular target: Cyclin-dependent kinase 4 (Homo sapiens, UniProt P11802); test: Inhibition of Cyclin-dependent kinase 4
Cyclin-dependent kinase 4, sequence (P11802 whole entry): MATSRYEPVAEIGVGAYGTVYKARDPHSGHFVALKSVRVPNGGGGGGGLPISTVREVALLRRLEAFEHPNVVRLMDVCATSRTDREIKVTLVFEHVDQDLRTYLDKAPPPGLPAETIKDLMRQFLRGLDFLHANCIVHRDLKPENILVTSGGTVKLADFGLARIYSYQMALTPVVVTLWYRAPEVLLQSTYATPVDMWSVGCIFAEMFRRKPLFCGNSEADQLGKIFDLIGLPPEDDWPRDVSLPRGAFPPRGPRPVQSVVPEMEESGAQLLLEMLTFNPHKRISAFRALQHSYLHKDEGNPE

| IC50 [1] [µM] | IC50 [2] [µM] | Structure (SMILES) |
| --- | --- | --- |
| 4 | 8 | Cc1nc2ccccn2c1-c1ccnc(N)n1 |
| 32 | – | CN(C)CC(O)COc1ccc(Nc2nccc(Nc3ccccc3)n2)cc1 (stereo unspecified) |
| 95 | 40 | Cc1nc2ccccn2c1-c1ccnc(NC(=O)C(F)(F)F)n1 |
| – | 0.15 | Cc1nc2ccccn2c1-c1ccnc(Nc2ccc(OCC(O)CN(C)C)cc2)n1 (stereo unspecified) |
| 0.006 | 2.7 | Cc1ccc(F)c(Nc2ccnc(Nc3ccc(S(N)(=O)=O)cc3)n2)c1 |
| > 10 | > 10 | Cc1nc2ccccn2c1-c1ccnc(NC(=O)Nc2ccccc2)n1 |
| 0.036 | 3.6 | Cc1nc2ccccn2c1-c1ccnc(Nc2ccccc2)n1 |
| < 0.003 | 2.5 | Cc1nc2ccccn2c1-c1ccnc(Nc2ccc(S(N)(=O)=O)cc2)n1 |
| 2.9 | 8.9 | CC(=O)Nc1nccc(-c2c(C)nc3ccccn23)n1 |
